We go through 38 molecules from patent US11358969B2, “Indole AHR inhibitors and uses thereof” (Ikena Oncology, Inc., priority 2017, dated 2022).

The target in this assay is T1, AHR (UniProt P35869).
T1 construct: IC50
T1 sequence (P35869 1-848): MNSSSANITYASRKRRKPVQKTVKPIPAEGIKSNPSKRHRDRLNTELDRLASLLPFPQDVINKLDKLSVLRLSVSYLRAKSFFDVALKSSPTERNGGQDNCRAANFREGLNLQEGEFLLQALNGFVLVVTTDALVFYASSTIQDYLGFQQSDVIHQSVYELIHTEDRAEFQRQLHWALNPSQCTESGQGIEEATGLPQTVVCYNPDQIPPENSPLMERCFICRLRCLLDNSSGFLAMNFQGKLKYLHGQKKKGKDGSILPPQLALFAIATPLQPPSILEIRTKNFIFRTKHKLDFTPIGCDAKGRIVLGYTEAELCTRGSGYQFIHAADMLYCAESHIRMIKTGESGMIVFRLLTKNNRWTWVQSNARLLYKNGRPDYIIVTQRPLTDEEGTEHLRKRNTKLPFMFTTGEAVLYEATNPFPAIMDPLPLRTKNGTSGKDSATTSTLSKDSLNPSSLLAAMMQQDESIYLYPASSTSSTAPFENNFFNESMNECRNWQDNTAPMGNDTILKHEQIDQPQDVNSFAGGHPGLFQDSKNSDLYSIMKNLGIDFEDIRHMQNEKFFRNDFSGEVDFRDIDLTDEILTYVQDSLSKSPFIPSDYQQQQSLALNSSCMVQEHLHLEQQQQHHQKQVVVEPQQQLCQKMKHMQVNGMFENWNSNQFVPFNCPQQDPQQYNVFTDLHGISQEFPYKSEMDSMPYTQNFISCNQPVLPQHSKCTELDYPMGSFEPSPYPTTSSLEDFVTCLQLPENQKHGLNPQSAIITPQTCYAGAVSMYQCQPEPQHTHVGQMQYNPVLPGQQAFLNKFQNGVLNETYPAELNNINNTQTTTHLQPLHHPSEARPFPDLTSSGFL
Description: DRE-Luciferase Reporter Assay (Alternate Method) (Example 1B). Format: cell-based, murine or human. Conditions: cell line and AHR activating ligand not specified. For orientation: Reporter assays use an easily measured gene product as a stand-in for the process of interest.

pIC50: −log10 of the molar value.

By pIC50 is commonly meant the IC50 on a negative log10 scale, so that one unit is a factor of ten. The low end stands for a high IC50, the high end for a low IC50.

The molecule `Fc1cncc(-c2nc(N[C@@H]3CCc4[nH]ccc4C3)c3ncccc3n2)c1` [I-252b, 2-(5-Fluoro-3-pyridyl)-N-[(5R)-4,5,6,7-tetrahydro-1H-indol-5-yl]pyrido[3,2-d]pyrimidin-4-amine] had a pIC50 of more than 6.30.

The molecule `CC(C)c1cnn2c(NC3CCc4[nH]c5ccccc5c4C3)nc(-c3ccc(OC(F)(F)F)cc3)nc12` (centres unmarked) [I-269] showed a negative logarithm of the IC50 (pIC50) of less than 5.82.

`CC(C)c1cnn2c(NC3CCc4[nH]c5ccccc5c4C3)cc(-c3cccc4c3OCO4)nc12` (centres unmarked) [I-228] showed a pIC50 of less than 5.82.

As to `NC(=O)c1cnn2c(N[C@@H]3CCc4[nH]c5ccccc5c4C3)nc(-c3cncc(F)c3)nc12` [I-265, 2-(5-Fluoro-3-pyridyl)-4-[[(3R)-2,3,4,9-tetrahydro-1H-carbazol-3-yl]amino]pyrazolo[1,5-a][1,3,5]triazine-8-carboxamide], the negative logarithm of the IC50 (pIC50) is more than 6.30.

As to `Fc1cncc(-c2cc(NCCc3c[nH]c4ccccc34)n3ncc(C4CC4)c3n2)c1` [I-86, 3-Cyclopropyl-5-(5-fluoro-3-pyridyl)-N-[2-(1H-indol-3-yl)ethyl]pyrazolo[1,5-a]pyrimidin-7-amine], the pIC50 is more than 6.30.

As to `Cc1[nH]c2ccccc2c1CCNc1nc(-c2cncc(F)c2)nc2c1ncn2C(C)C` [I-79, 2-(5-Fluoro-3-pyridyl)-9-isopropyl-N-[2-(2-methyl-1H-indol-3-yl)ethyl]purin-6-amine], the pIC50 was more than 6.30.

In turn, `CC(C)c1cnn2c(NC3CCc4[nH]c5ccccc5c4C3)nc(-c3ccc(=O)n(C)c3)nc12` (centres unmarked) [I-272] gave a pIC50 of less than 5.82.

Consider `CC(C)c1cnn2c(N[C@@H]3CCc4ccc(O)cc4C3)cc(-c3cncc(F)c3)nc12` [I-94a, (3R)-3-[[5-(5-fluoro-3-pyridyl)-3-isopropyl-pyrazolo[1,5-a]pyrimidin-7-yl]amino]tetralin-6-ol], for which the negative logarithm of the IC50 (pIC50) was less than 5.82.

`CC(C)c1cnn2c(NC3CCc4[nH]c5ccccc5c4C3)nc(-n3ccnc3)nc12` (centres unmarked) [I-281]: the negative-log IC50 (pIC50) is more than 6.30.

For `C=Cc1cnn2c(NCCc3c[nH]c4ccccc34)cc(-c3cncc(F)c3)nc12` [I-230, 5-(5-Fluoro-3-pyridyl)-N-[2-(1H-indol-3-yl)ethyl]-3-vinyl-pyrazolo[1,5-a]pyrimidin-7-amine], the pIC50 is more than 6.30.

Take `CC(C)Nc1cc(NCCc2c[nH]c3ccccc23)nc(-c2cncc(F)c2)n1` [I-20, 2-(5-Fluoro-3-pyridyl)-N6-[2-(1H-indol-3-yl)ethyl]-N4-isopropyl-pyrimidine-4,6-diamine]: the pIC50 was more than 6.30.

Molecule `Cc1cnn2c(N[C@H](Cc3c[nH]c4ccccc34)CN(C)C)cc(-c3cncc(F)c3)nc12` [I-174] gave a pIC50 of less than 5.82.

Molecule `CC(C)c1cnn2c(NC3CCc4[nH]c5ccccc5c4C3)nc(C3CCCCC3)nc12` (centres unmarked) [I-268] showed a negative-log IC50 (pIC50) of less than 5.82.

Turning to `CC(C)n1cnc2c(NCCc3ccc(O)cc3)nc(-c3csc4ccccc34)nc21` [I-233], the pIC50 is 6.00 to 6.30.

`CC(C)c1cnn2c(NCCc3n[nH]c4ccccc34)nc(-c3cncc(F)c3)nc12` [I-289] had a negative-log IC50 (pIC50) of more than 6.30.

As for `CN(C)c1cc(NCCc2c[nH]c3ccccc23)nc(-c2cncc(F)c2)n1` [I-63, 2-(5-Fluoro-3-pyridyl)-N6-[2-(1H-indol-3-yl)ethyl]-N4,N4-dimethyl-pyrimidine-4,6-diamine], the pIC50 is more than 6.30.

In turn, `Fc1cncc(-c2nc(NC3CCc4[nH]c5ccccc5c4C3)n3ncc(-c4ncc[nH]4)c3n2)c1` (centres unmarked) [I-273] gave a negative-log IC50 (pIC50) of 5.82 to 6.00.

`CC(C)c1cnn2c(N[C@H]3Cc4ccc(O)cc4C3)cc(-c3cncc(F)c3)nc12` [I-220, (2S)-2-[[5-(5-fluoro-3-pyridyl)-3-isopropyl-pyrazolo[1,5-a]pyrimidin-7-yl]amino]indan-5-ol] had a negative-log IC50 (pIC50) of more than 6.30.

As to `CC(C)c1cnn2c(C(=O)NCc3cccc(O)c3)cc(-c3cncc(F)c3)nc12` [I-95, 5-(5-Fluoro-3-pyridyl)-N-[(3-hydroxyphenyl)methyl]-3-isopropyl-pyrazolo[1,5-a]pyrimidine-7-carboxamide], the negative-log IC50 (pIC50) was less than 5.82.

`Fc1cncc(-c2nc(N[C@@H]3CCc4[nH]c5ccccc5c4C3)n3ncc(C(F)(F)F)c3n2)c1` [I-267, (3R)—N-[2-(5-Fluoro-3-pyridyl)-8-(trifluoromethyl)pyrazolo[1,5-a][1,3,5]triazin-4-yl]-2,3,4,9-tetrahydro-1H-carbazol-3-amine] showed a negative logarithm of the IC50 (pIC50) of more than 6.30.

In turn, `CC(C)n1cnc2c(NC3Cc4ccc(O)cc4C3)nc(-c3cncc(F)c3)nc21` (centres unmarked) [I-48, 2-[[2-(5-fluoro-3-pyridyl)-9-isopropyl-purin-6-yl]amino]indan-5-ol] gave a pIC50 of more than 6.30.

In turn, `OCc1cnn2c(NC[C@@H](O)c3c[nH]c4ccccc34)cc(-c3cncc(F)c3)nc12` [I-144a, (1S)-2-[[5-(5-fluoro-3-pyridyl)-3-(hydroxymethyl)pyrazolo[1,5-a]pyrimidin-7-yl]amino]-1-(1H-indol-3-yl)ethanol] gave a pIC50 of 5.82 to 6.00.

Regarding `OCc1cnn2c(NCCc3c[nH]c4ccccc34)cc(-c3cncc(F)c3)nc12` [I-197, [5-(5-Fluoro-3-pyridyl)-7-[2-(1H-indol-3-yl)ethylamino]pyrazolo[1,5-a]pyrimidin-3-yl]methanol], the negative logarithm of the IC50 (pIC50) is more than 6.30.

With `Cc1cnn2c(NCC3(c4c[nH]c5ccccc45)CC3)cc(-c3cncc(F)c3)nc12` [I-167], the pIC50 was less than 5.82.

`Cc1cnn2c(NCCc3c[nH]c4ccc(O)cc34)cc(-c3cncc(F)c3)nc12` [I-215, 3-[2-[[5-(5-Fluoro-3-pyridyl)-3-methyl-pyrazolo[1,5-a]pyrimidin-7-yl]amino]ethyl]-1H-indol-5-ol] gave a pIC50 of less than 5.82.

On to `Cc1cnn2c(NCCc3ccnc(O)c3)cc(-c3cncc(F)c3)nc12` [I-193], for which the pIC50 was less than 5.82.

Molecule `CC(C)c1cnn2c(NC3Cc4[nH]c5ccccc5c4C3)nc(-c3cncc(F)c3)nc12` (stereo in doubt) [I-263a, (2S)—N-[2-(5-Fluoro-3-pyridyl)-8-isopropyl-pyrazolo[1,5-a][1,3,5]triazin-4-yl]-1,2,3,4-tetrahydrocyclopenta[b]indol-2-amine] showed a pIC50 of 5.82 to 6.00.

The molecule `CC(C)n1cnc2c(NCCc3c[nH]c4c(F)cc(F)cc34)nc(-c3cncc(F)c3)nc21` [I-23, N-[2-(5,7-Difluoro-1H-indol-3-yl)ethyl]-2-(5-fluoro-3-pyridyl)-9-isopropyl-purin-6-amine] had a pIC50 of more than 6.30.

In the case of `O=C(O)c1cnn2c(NCCc3c[nH]c4ccc(O)cc34)cc(-c3cncc(F)c3)nc12` [I-168], the pIC50 was less than 5.82.

Regarding `Cc1cnn2c(NC[C@@H](C)c3c[nH]c4ccccc34)cc(-c3cncc(F)c3)nc12` [I-160a, 5-(5-Fluoro-3-pyridyl)-N-[(2S)-2-(1H-indol-3-yl)propyl]-3-methyl-pyrazolo[1,5-a]pyrimidin-7-amine], the pIC50 is less than 5.82.

On to `C[C@H](O)c1cnn2c(N[C@@H]3CCc4[nH]c5ccccc5c4C3)cc(-c3cncc(F)c3)nc12` [I-198b, (1S)-1-[5-(5-fluoro-3-pyridyl)-7-[[(3R)-2,3,4,9-tetrahydro-1H-carbazol-3-yl]amino]pyrazolo[1,5-a]pyrimidin-3-yl]ethanol], for which the pIC50 is 6.00 to 6.30.

`CC(C)c1cnn2c(N[C@H]3CCc4nc(N)sc4C3)nc(-c3cncc(F)c3)nc12` [I-128a, (6S)—N6-[2-(5-Fluoro-3-pyridyl)-8-isopropyl-pyrazolo[1,5-a][1,3,5]triazin-4-yl]-4,5,6,7-tetrahydro-1,3-benzothiazole-2,6-diamine] gave a pIC50 of less than 5.82.

As to `CC(C)c1cnn2c(NCCc3c[nH]c4ccccc34)cc(-c3cccc4c3OCO4)nc12` [I-227, 5-(1,3-Benzodioxol-4-yl)-N-[2-(1H-indol-3-yl)ethyl]-3-isopropyl-pyrazolo[1,5-a]pyrimidin-7-amine], the negative logarithm of the IC50 (pIC50) is more than 6.30.

The molecule `CC(C)(C)c1cnn2c(NCCc3c[nH]c4ccccc34)nc(-c3cncc(F)c3)nc12` [I-131, N-(2-(1H-Indol-3-yl)ethyl)-8-(tert-butyl)-2-(5-fluoropyridin-3-yl)pyrazolo[1,5-a][1,3,5]triazin-4-amine] had a negative-log IC50 (pIC50) of more than 6.30.

Molecule `CN(C)C(=O)c1cnn2c(NC3CCc4[nH]c5ccccc5c4C3)nc(-c3cncc(F)c3)nc12` (centres unmarked) [I-288] gave a pIC50 of more than 6.30.

`Cc1cnn2c(N[C@@H]3CCc4[nH]c5c(F)cccc5c4C3)cc(-c3cncc(F)c3)nc12` [I-216a, (3R)-8-Fluoro-N-[5-(5-fluoro-3-pyridyl)-3-methyl-pyrazolo[1,5-a]pyrimidin-7-yl]-2,3,4,9-tetrahydro-1H-carbazol-3-amine] showed a negative logarithm of the IC50 (pIC50) of 6.00 to 6.30.

`Fc1cncc(-c2cc(N[C@@H]3CCc4[nH]c5ccccc5c4C3)n3nccc3n2)c1` [I-41, (3R)—N-[5-(5-Fluoro-3-pyridyl)pyrazolo[1,5-a]pyrimidin-7-yl]-2,3,4,9-tetrahydro-1H-carbazol-3-amine] had a pIC50 of less than 5.82.

For the molecule `Cc1nn2c(NCCc3c(C)[nH]c4c(F)cc(F)cc34)cc(-c3cncc(F)c3)nc2c1C(C)C` [I-84, N-[2-(5,7-Difluoro-2-methyl-1H-indol-3-yl)ethyl]-5-(5-fluoro-3-pyridyl)-3-isopropyl-2-methyl-pyrazolo[1,5-a]pyrimidin-7-amine], the negative-log IC50 (pIC50) was less than 5.82.
